Measurements: US20240335418A1, “SAFER PSYCHOACTIVE COMPOSITIONS” (Arcadia Medicine, Inc., priority 2021, published 2024)
“Also recorded” adds a separate entry of the source. Like-named read-outs stand apart in the source and are kept apart here.

Experiments:
[1] = mouse; cited from earlier work
[2] = cited from earlier work
[3] = dog, female and male, p.o.; cited from earlier work
[4] = p.o. in rat (SR(±)MDMA: with single housing); cited from earlier work
[5] = Human Equivalent Dose (HED) of NOAEL; details: for Human Equivalent Dose (HED): NOAEL (human), total dose / Human Equivalent Dose (HED): Neurotoxicology NOAEL (human), total dose: assuming a 60 kg human; for NOAEL: human, po
[6] = cited from earlier work; remark: listed apart in the source
[7] = dog, p.o.; cited from earlier work
[8] = test system: serotonergic presynaptic markers; details: primate study; cited from earlier work
[9] = rat, cited from earlier work
[10] = cited from earlier work; for Fear behavior during the fear extinction session: during extinction training; for Conditioned fear when retention of extinction was assessed: the following day
[11] = Subjective report: physiological and subjective effects after oral administration (Subject A); type: in vivo, human
Description: To determine the physiological and subjective effects of the hydrochloride salt of R-MDMA (oral administration, 250 (±) 10 mg), supplemented with acetyl-L-carnitine (ALCAR), alpha lipoic acid (ALA), ascorbate to reduce or prevent neurotoxicity.
2.2 g of racemic MDMA was obtained and dissolved in methanol at a stock concentration of 10 mg/mL. A ChiralPak Ad-H column (150×4.6 mm, 5 μm particle size) was flushed with mobile phase solution on an Agilent 1260 machine with a variable UV-Vis detector and 10 uL of the final concentrated solution (1:100) was injected on a 35 min run cycle. Due to the preliminary nature of the testing, no further characterization was done. The laevo-rich form was the first eluted. It was collected and roto-evaporated into solid form and then dried over magnesium pellets. The product, when dried and washed thoroughly, was sent out for anonymized 1H-NMR testing to determine identity.
Vitals were taken hourly, and were taken four times between hours two and three. Heart rate rose for a short period to 115-125 from 85 resting.
MDMA enantiomers were recombined in a 9:1 ratio through crystallization and washing.

[12] = No adverse effect level (NOAEL) in rat, p.o.; details: in vivo, po
[13] = Maximum Recommended Starting Dose (MRSD) and doses tested in humans; details: expected value
CYP2C19 = CYP2C19 (Homo sapiens, UniProt P33261); details: cited from earlier work
CYP2D6 = CYP2D6 (Homo sapiens, UniProt P10635); details: cited from earlier work
[14] = 100 mg, healthy volunteers, brain imaging studies

CYP2D6, sequence (P10635 whole entry): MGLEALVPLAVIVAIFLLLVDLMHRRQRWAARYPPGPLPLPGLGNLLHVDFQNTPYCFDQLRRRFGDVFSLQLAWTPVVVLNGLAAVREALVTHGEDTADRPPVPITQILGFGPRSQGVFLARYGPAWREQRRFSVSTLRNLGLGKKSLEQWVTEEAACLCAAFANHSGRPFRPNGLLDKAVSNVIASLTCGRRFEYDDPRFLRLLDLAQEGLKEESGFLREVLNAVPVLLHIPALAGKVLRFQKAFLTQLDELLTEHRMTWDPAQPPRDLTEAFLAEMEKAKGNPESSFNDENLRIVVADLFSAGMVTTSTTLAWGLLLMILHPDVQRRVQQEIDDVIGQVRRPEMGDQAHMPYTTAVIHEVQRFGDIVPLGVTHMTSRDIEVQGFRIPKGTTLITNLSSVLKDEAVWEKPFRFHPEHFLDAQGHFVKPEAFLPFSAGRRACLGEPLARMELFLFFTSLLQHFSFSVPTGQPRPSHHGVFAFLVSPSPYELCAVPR
CYP2C19, sequence (P33261 whole entry): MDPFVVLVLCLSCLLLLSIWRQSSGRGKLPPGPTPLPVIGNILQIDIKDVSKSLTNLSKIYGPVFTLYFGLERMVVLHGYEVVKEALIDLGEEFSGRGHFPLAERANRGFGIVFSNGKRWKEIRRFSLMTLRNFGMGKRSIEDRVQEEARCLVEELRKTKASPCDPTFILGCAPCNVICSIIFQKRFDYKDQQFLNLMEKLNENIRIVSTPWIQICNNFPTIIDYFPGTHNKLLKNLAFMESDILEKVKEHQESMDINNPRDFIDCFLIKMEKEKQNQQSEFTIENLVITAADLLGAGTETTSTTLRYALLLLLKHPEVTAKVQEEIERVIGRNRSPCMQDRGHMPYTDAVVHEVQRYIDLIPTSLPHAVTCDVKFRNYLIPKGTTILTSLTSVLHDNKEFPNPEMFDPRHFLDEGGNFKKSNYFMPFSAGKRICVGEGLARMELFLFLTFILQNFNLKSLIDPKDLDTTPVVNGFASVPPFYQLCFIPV

## CNC(C)Cc1ccc2c(c1)OCO2 (stereo not drawn) [MDMA, 3,4-methylenedioxymethamphetamine]
[1]
  Critical period peak: 40 h
  Critical period starts to open, time after the acute dose: about six
[2]; [14]
  Duration of subjective effects: approximately 4.5 hours
  Time of peak subjective effects: 100 min
[2]; patients with PTSD receiving one dose
  Duration of effects: 4 to 5 h
[2]; patients with PTSD, 100-125 mg
  Onset of action after the initial dose: 45 to 75 min
  Time of peak drug effects: 2 to 5 h
[2]; patients with PTSD, with the booster dose
  Duration of effects: 5 to 6 h
[2]; prior study (Harris et al.)
  Decrease of subjective effects to baseline values: 5 to 6 h
  Onset of subjective effects: approximately 45 mins
  Peak of subjective effects: 1.5 to 2 h
[3]
  Neurotoxicology NOAEL: 4 mg/kg/week p.o
[4]
  No adverse effect level (NOAEL): NOAEL: 100 mg/kg
[5]; 9:1 R:S MDMA: expected, p.o.
  Human Equivalent Dose (HED): NOAEL (human): 34 mg/kg →
  Human Equivalent Dose (HED): NOAEL (human), total dose: 2080 mg
[5]; 9:1 R:S MDMA: i.v.
  Human Equivalent Dose (HED): Neurotoxicology NOAEL (human): NOAEL (human): 6 mg/kg
  Human Equivalent Dose (HED): Neurotoxicology NOAEL (human), total dose: 342.9 mg*
[6]; doses ranging from 50-125 mg
  Elimination half-life: 7 to 9 h
[6]; humans, doses 100-125 mg
  Time to peak plasma concentration: 2 to 3 h
[7]
  No adverse effect level (NOAEL): NOAEL: 15 mg/kg in
[8]
  Serotonergic presynaptic markers: profound reductions in all three serotonergic presynaptic markers
[9]; female, p.o.
  Neurotoxicology NOAEL: 25 mg/kg/week p.o1
[9]; male, p.o.
  Neurotoxicology NOAEL: 20 mg/kg/week p.o1.

## CN[C@H](C)Cc1ccc2c(c1)OCO2 [R-MDMA, (R)-1-(1,3-Benzodioxol-5-yl)-N-methylpropan-2-amine]
[10]
  Fear behavior during the fear extinction session: did not reduce fear behavior
  Conditioned fear when retention of extinction was assessed: significantly reduced conditioned fear
[4]
  No adverse effect level (NOAEL): NOAEL: >200 mg/kg
[5]; 9:1 R:S MDMA: expected, p.o.
  Human Equivalent Dose (HED): NOAEL (human), total dose: mg/kg → >4100
[5]; 9:1 R:S MDMA: i.v.
  Human Equivalent Dose (HED): Neurotoxicology NOAEL (human), total dose: 450 mg*
[5]
  NOAEL: > 68 mg/kg
[6]; in vivo
  AUC in comparison to S-MDMA: increased AUC
  Half-life in comparison to S-MDMA: longer half-life
[11]; R-MDMA HCl 250 (±) 10 mg oral
  Duration of the whole experience: approximately 7 hours
  Peak of the experience, time after ingestion: around two
  Start of come-down: ~4 h
  Start of noticeable effects off-baseline: around 40 minutes
[11]; R-MDMA HCl 250 (±) 10 mg oral, monitor of low precision, result inconclusive
  Blood pressure: increased for a short period
[11]; single oral dose, Subject A
  Hyperthermia or hypothermia: No noticeable hyperthermia or hypothermia
  Jaw clenching: No incidence of jaw clenching
  Stimulant effects compared with racemic MDMA: almost entirely absent; also recorded: reduction in stimulation
[11]; single oral dose, Subject A, R-MDMA HCl 250 (±) 10 mg with supplements (rise from 85 resting), 9:1 R:S MDMA 230-240 mg
  Heart rate: 115-125
[9]; i.v.
  Neurotoxicology NOAEL: 50 mg/kg i.v2

## CN[C@@H](C)Cc1ccc2c(c1)OCO2 [S-MDMA, (S)-1-(1,3-Benzodioxol-5-yl)-N-methylpropan-2-amine]
[12]
  NOAEL: < 100 mg/kg
[10]
  Fear behavior during the fear extinction session: reduced conditioned fear behavior
  Conditioned fear when retention of extinction was assessed: a reduction thereof was not observed
[13]
  Expected MSRD: 150 mg
CYP2C19
  Metabolism by CYP2C19, enantiomer preference: preferentially metabolizes
[5]; 9:1 R:S MDMA: expected, p.o.
  Human Equivalent Dose (HED): NOAEL (human), total dose: mg/kg → <2080
[5]; 9:1 R:S MDMA: i.v.
  Human Equivalent Dose (HED): Neurotoxicology NOAEL (human), total dose: 342.9 mg*
[5]
  NOAEL: < 34 mg/kg
CYP2D6
  Affinity for CYP2D6 compared with the other enantiomer: higher affinity
[9]; i.v.
  Neurotoxicology NOAEL: 20 mg/kg i.v2,3
